# In patent US8288510B2, “Isolated peptides having phospholipase inhibitory activity” (priority 2008, dated 2012):
# Positions count from the first letter of the chain named.
# T1: TLL variant N248G/Q249G/P250T/N251L/I252G/P253L (Thermomyces lanuginosus, UniProt O59952, I274G/N270G/N273L/P272T/P275L/Q271G)
# T1 sequence (O59952 23-291 N270G/Q271G/P272T/N273L/I274G/P275L): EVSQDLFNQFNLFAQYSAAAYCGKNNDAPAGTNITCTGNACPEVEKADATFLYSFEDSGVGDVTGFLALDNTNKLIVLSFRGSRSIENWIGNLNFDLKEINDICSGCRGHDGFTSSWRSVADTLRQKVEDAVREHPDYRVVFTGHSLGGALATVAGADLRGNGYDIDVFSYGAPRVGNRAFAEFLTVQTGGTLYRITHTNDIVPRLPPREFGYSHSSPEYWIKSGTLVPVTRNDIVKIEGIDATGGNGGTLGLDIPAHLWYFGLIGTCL
# B1: FoL: Fusarium oxysporum lipase, SEQ ID No. 1 (protein, listed as Fusarium oxysporum)
# chain: AVGVTTTDFSNFKFYIQHGAAAYCNSEAAAGSKITCSNNGCPTVQGNGATIVTSFVGSKTGIGGYVATDSARKEIVVSFRGSINIRNWLTNLDFGQEDCSLVSGCGVHSGFQRAWNEISSQATAAVASARKANPSFNVISTGHSLGGAVAVLAAANLRVGGTPVDIYTYGSPRVGNAQLSAFVSNQAGGEYRVTHADDPVPRLPPLIFGYRHTTPEFWLSGGGGDKVDYTISDVKVCEGAANLGCNGGTLGLDIAAHLHYFQATDACNAGGFSWRRYRSAESVDKRATMTDAELEKKLNSYVQMDKEYVKNNQARS
# B2: TLL: Thermomyces lanuginosus lipase, SEQ ID No. 9 (protein, listed as Thermomyces lanuginosus)
# chain: T1 sequence (O59952 23-291 N270G/Q271G/P272T/N273L/I274G/P275L) with G248N, G249Q, T250P, L251N, G252I, L253P
# Columns and labels:
# [1] = molecular target: FOL wt; test: Enzyme assay p-NP butyrate, inhibitory effect of peptides on FoL wildtype (Example 8); assay type: biochemical, Fusarium oxysporum; conditions: fitted against inhibitor/lipase ratio (peptide excess 0.5 to 1000), pH 7
# Protocol: (§1) Enzyme assay: The substrate used for these experiments was para-nitropenyl (p-NP) butyrate (N9876 Sigma Aldrich). A substrate stock solution was prepared by adding 18 μL of p-NP butyrate to 1 ml of 2-propanol giving a 100 mM stock solution. The working solution was prepared by diluting 500 μL stock solution in final volume of 50 mL 500 mM phosphate pH 7, 0.4% triton X-100. […] An enzyme substrate blank containing 60 μL was included. After pre-incubation in minimum 15 minutes, 100 μL of substrate was added and the reaction was followed in microtiter plate spectrophotometer (SPECTRAmax PLUS 384 from Molecular Devices) after an initial shaking (5 sec.) at room temperature. Colour development over time was monitored at A405 (every 20 sec. for 30 minutes), measuring p-nitrophenol, one of the degradation products of p-NP butyrate, liberated by the hydrolysis.
# (§2) Initial reaction rates (determined as the linear initial slope of A405 plotted against time) were plotted against the logarithm to the inhibitor/lipase ratio. From the following model IC50 values were determined:
# (§3) v0 is the initial reaction rate, vmax is the maximum rate, vmin is the minimum reaction rate and IC50 is the half maximal inhibitory concentration. GraphPad Prism (v.5.00, Mar. 12, 2007) from GraphPad Software, Inc. was used for regression.
# [2] = molecular target: FOL I207E variant; test: Enzyme assay p-NP butyrate, inhibitory effect of peptides on FoL variant I207E (Example 8); assay type: biochemical, Fusarium oxysporum; conditions: for IC50 value (half maximal inhibitory concentration): FOL I207E variant, fitted against inhibitor/lipase ratio (peptide excess 0.5 to 1000), p-NP butyrate, pH 7
# Sequence of FOL I207E variant (as listed by the source, stated change not applied): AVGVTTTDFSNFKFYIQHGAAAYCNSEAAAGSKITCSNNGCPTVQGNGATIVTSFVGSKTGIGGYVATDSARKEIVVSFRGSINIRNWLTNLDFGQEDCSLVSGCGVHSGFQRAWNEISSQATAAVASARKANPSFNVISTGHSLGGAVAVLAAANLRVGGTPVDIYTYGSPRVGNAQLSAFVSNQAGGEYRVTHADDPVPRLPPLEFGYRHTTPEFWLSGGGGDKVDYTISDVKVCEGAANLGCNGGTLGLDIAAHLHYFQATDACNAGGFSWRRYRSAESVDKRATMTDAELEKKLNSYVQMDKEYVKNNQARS
# Protocol: as §1, §2, §3
# [3] = molecular target: T1, TLL variant N248G/Q249G/P250T/N251L/I252G/P253L; test: Enzyme assay p-NP butyrate, inhibitory effect of peptides on TLL variant (Example 9); assay type: biochemical; conditions: peptide/lipase ratios 5 to 5000 (P11, P13), 6 to 6000 (P12)
# Protocol: as §1, §2, §3
# Enzyme assay: As described above.
# [4] = Lecithin plate assay, clearing zone (phospholipase activity); assay type: biochemical; conditions: for Clearing zone diameter: after 20 hours incubation
molecule,measurement,setting,value
ATMTDAELEKKLNSYVQMAKEYVKNNQARS [P1′],IC50 value (half maximal inhibitory concentration),[1],No
same,IC50 value (half maximal inhibitory concentration),[2],No
ATMTDAELEKKLNSYVQMDKEEVKNNQARS [Peptide P4],IC50 value (half maximal inhibitory concentration),[1],No
same,IC50 value (half maximal inhibitory concentration),[2],Very low
ATMTDAELEKKLNSYVQMDKEYVKNNQARS [Peptide P0],"binding of the peptide by FoL variant I207E compared with wildtype enzyme (% inhibition curves, FIG. 8 C)",[2]; 0% inhibition assumed for lowest peptide concentration,better at binding the peptide than the wildtype enzyme
ATMTDAELTKKLNSYVQMDKEYVKNNQARS [Peptide P2],IC50 value (half maximal inhibitory concentration),[1],Very low
ATMTDAEVEKKLNSYVQMDKEYVKNNQARS [Peptide P11],IC50 value (half maximal inhibitory concentration),[3],Very low
ATMTEAELEKKLNSYVQMDKEYVKNNQARS [Peptide P1],IC50 value (half maximal inhibitory concentration),[1],Very low
B1,Clearing zone diameter,[4]; ODA280 0.2,7 mm
same,Clearing zone diameter,[4]; ODA280 0.5,10 mm
B2,Clearing zone diameter,[4]; ODA280 0.2,0 mm
same,Clearing zone diameter,[4]; ODA280 0.5,0 mm
same,Clearing zone (in words),"[4]; after 20 hours of incubation, ODA280 0.2 and 0.5",did not show a clearing zone
